{"source": "patent EP0363829A2", "about": "“Predicting sensitivity to injectable radio contrast media with histamine release test” (MILES INC., priority 1988, dated 1990)", "key": {"[1]": {"design": "species or system patients", "conditions": "human, in vivo", "method": "A clinical study was performed to test the hypothesis that sensitivity (allergy) to radio contrast media could be predicted by the results of the histamine release test described herein. Histamine release from a blood sample from patients who would later be tested with a radio contrast media was measured. The results were later compared with the occurrence of an allergic reaction to the administration of the radio contrast media."}, "basophils": {"tested_on": "basophils", "type": "cell-based, patients", "method": "In the first step a histamine-protein conjugate is adsorbed to 94 polystyrene pegs simultaneously. This is accomplished by submerging the pegs into wells of a 96 well microtiter plate (referred to as the adsorption plate) that contain a solution of a histamine-BSA conjugate. Two microtiter wells contain only BSA and are used as negative controls. Following a one hour incubation period at room temperature, the pegs are removed and washed to remove non-adsorbed conjugate.\nA second 96 well microtiter plate (referred to as the release plate) containing various dilutions of RCM or histamine is also prepared. […]\nThe relative concentration of the monoclonal antibody-horseradish peroxidase conjugate bound to the histamine-BSA conjugate on the polystyrene pegs is now estimated by immersing the pegs in a third microtiter plate (referred to as the chromogen plate) containing a chromogenic substrate for horseradish peroxidase, 2, 2′-azino-di-(3-ethyl-benzothiazoline)-6-sulfonic acid (ABTS®). […] Quantitative assessment of histamine release can be made if a Microtiter ELISA Reader is available. […]\nThe radio contrast media (RCM) to be tested as the allergen was diluted into 8 to 9 serial dilutions using Tris ACM or distilled water as diluent. […] The release plate was then ready for use. […]"}}}
{"smiles": "CC(=O)Nc1c(I)c(NC(C)=O)c(I)c(C(=O)O)c1I", "note": "[Hypaque]", "values": [{"measurement": "patients with an allergic reaction to the injection of the radio contrast media", "setting": "[1]", "result": "one"}, {"measurement": "degree of histamine release", "setting": "basophils", "result": "highest degree of histamine release"}, {"measurement": "histamine release", "setting": "basophils", "result": "significantly more histamine release"}]}
